Experimental data as given in ChEMBL document CHEMBL1148320, “Characterization of a ligand-receptor binding event using receptor-dependent four-dimensional quantitative structure-activity relationship analysis” (J Med Chem, 2004).

Biological target: glycogen phosphorylase b, muscle (Oryctolagus cuniculus) (UniProt P00489)
Sequence (P00489 whole entry, looked up): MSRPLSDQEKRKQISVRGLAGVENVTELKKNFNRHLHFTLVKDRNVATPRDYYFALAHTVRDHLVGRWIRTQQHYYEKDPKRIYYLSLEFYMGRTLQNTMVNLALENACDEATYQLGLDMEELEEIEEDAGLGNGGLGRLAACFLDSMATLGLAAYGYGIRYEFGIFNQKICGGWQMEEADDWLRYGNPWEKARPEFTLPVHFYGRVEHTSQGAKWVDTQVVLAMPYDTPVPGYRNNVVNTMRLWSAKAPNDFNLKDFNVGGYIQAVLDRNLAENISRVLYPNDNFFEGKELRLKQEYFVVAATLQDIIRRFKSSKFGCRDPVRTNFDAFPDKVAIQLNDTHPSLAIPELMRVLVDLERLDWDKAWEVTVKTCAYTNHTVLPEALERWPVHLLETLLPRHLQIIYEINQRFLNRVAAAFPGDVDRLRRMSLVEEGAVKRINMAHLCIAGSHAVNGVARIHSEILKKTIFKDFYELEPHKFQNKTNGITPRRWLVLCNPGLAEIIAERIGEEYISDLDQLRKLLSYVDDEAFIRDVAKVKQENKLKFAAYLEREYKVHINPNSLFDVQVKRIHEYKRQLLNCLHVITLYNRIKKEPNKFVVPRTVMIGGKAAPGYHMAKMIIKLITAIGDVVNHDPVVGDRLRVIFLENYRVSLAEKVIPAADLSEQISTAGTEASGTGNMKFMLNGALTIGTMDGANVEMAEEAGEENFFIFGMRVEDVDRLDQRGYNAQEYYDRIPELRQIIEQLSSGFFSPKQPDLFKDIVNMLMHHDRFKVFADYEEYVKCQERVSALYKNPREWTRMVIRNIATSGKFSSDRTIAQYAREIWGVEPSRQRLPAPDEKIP

Ki [µM] | SMILES
21100 | NC(=O)CSC1O[C@H](CO)[C@@H](O)[C@H](O)[C@H]1O (single isomer, unassigned)
18900 | O=C(CSC1O[C@H](CO)[C@@H](O)[C@H](O)[C@H]1O)Nc1ccc(F)cc1F (single isomer, unassigned)
3600 | O=C(CSC1O[C@H](CO)[C@@H](O)[C@H](O)[C@H]1O)Nc1ccccc1 (single isomer, unassigned)
140 | NC(=O)NC1O[C@H](CO)[C@@H](O)[C@H](O)[C@H]1O (single isomer, unassigned)
39 | CCC(=O)NC1O[C@H](CO)[C@@H](O)[C@H](O)[C@H]1O (single isomer, unassigned)

Continued, compound first:

SMILES | Ki [µM]
OC[C@H]1S[C@H](O)[C@H](O)[C@@H](O)[C@@H]1O | 2000
OC[C@H]1O[C@@](O)(CO)[C@H](O)[C@@H](O)[C@@H]1O | 15800
O=C(CCl)NC1O[C@H](CO)[C@@H](O)[C@H](O)[C@H]1O (single isomer, unassigned) | 45
CNNC(=O)C1O[C@H](CO)[C@@H](O)[C@H](O)[C@H]1O (single isomer, unassigned) | 1800
CCCC(=O)NC1O[C@H](CO)[C@@H](O)[C@H](O)[C@H]1O (single isomer, unassigned) | 94
CC(=O)NCC(=O)NC1O[C@H](CO)[C@@H](O)[C@H](O)[C@H]1O (single isomer, unassigned) | 990
